# Where a name gives a salt, the structure may show the parent alone.
# Molecular target: T1, wild-type human ALK (cytoplasmic domain, amino acids 1058-1620, N-terminal GST fusion) (Homo sapiens, UniProt Q9UM73)
# T1 construct: The cytoplasmic domain (amino acids 1058-1620) of wild-type human ALK; GST (N); made in house; host or cells: SF9 insect cells
# Assay: ALK Inhibition in Enzyme Assay (Lance TR-FRET kinase assay)
# Type: biochemical
# Procedure, shortened: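 Purified enzyme phosphorylated a biotinylated peptide substrate for 90 minutes at room temperature. Reactions were stopped with 20 mM EDTA in 50 mM Tris (pH 7.5), 100 mM NaCl, 0.05% BSA, 0.1% Tween-20. Phosphopeptide was detected by TR-FRET with SA-APC and Eu-W1024 anti-phosphotyrosine antibody PT66, excitation 320 nm.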
# T1 sequence (Q9UM73 1058-1620): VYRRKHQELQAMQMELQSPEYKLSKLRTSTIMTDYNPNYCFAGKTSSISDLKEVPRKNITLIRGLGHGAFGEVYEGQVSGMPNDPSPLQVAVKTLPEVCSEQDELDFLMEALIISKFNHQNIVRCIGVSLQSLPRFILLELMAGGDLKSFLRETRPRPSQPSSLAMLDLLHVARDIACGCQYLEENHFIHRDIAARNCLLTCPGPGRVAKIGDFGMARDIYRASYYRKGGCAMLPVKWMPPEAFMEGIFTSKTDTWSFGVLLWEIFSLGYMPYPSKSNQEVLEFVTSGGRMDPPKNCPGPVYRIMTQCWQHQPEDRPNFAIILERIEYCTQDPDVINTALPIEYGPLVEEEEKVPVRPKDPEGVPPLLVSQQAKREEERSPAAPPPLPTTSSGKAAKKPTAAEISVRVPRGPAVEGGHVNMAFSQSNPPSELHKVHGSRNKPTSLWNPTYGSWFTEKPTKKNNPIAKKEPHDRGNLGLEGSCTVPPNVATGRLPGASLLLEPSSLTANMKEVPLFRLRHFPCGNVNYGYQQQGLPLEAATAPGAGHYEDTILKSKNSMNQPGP
row,SMILES,IC50
1,"NC(=O)[C@H]1CC[C@@H](n2/c(=N/C(=O)c3ccc(F)cc3)[nH]c3cnc(OCCN4CCCCC4)cc32)CC1 [Example 135, (E)-N-(1-(cis-4-Carbamoylcyclohexyl)-6-(2-(piperidin-1-yl)ethoxy)-1H-imidazo[4,5-c]pyridin-2(3H)-ylidene)-4-fluorobenzamide]",< 50 nM
2,"CC(C)NC(=O)[C@H]1CC[C@@H](n2c(N)nc3ccc(CN4CCC(C(C)(C)O)CC4)cc32)CC1 [Example 136, cis-4-(2-Amino-6-((4-(2-hydroxypropan-2-yl)piperidin-1-yl)methyl)-1H-benzo[d]imidazol-1-yl)-N-isopropylcyclohexanecarboxamide]",1000 to 5000 nM
3,"CC(C)NC(=O)[C@H]1CC[C@@H](n2/c(=N/C(=O)c3cccc(C(F)(F)F)c3)[nH]c3ccc(CN4CCC(C(C)(C)O)CC4)cc32)CC1 [Example 147, (E)-N-(6-((4-(2-Hydroxypropan-2-yl)piperidin-1-yl)methyl)-1-(cis-4-(isopropylcarbamoyl)cyclohexyl)-1H-benzo[d]imidazol-2(3H)-ylidene)-3-(trifluoromethyl)benzamide]",< 50 nM
4,"CC(C)NC(=O)[C@H]1CC[C@@H](n2/c(=N/C(=O)c3ccc(F)c(C(F)(F)F)c3)[nH]c3ccc(CN4CCC(C(C)(C)O)CC4)cc32)CC1 [Example 148, (E)-4-Fluoro-N-(6-((4-(2-hydroxypropan-2-yl)piperidin-1-yl)methyl)-1-(cis-4-(isopropylcarbamoyl)cyclohexyl)-1H-benzo[d]imidazol-2(3H)-ylidene)-3-(trifluoromethyl)benzamide]",< 50 nM
5,"COc1ccc(C(=O)/N=c2\[nH]c3ccc(CN4CCC(C(C)(C)O)CC4)cc3n2[C@H]2CC[C@@H](C(=O)NC(C)C)CC2)cc1 [Example 151, (E)-N-(6-((4-(2-Hydroxypropan-2-yl)piperidin-1-yl)methyl)-1-(cis-4-(isopropylcarbamoyl)cyclohexyl)-1H-benzo[d]imidazol-2(3H)-ylidene)-4-methoxybenzamide]",< 50 nM
6,"COc1ccc(COc2ccc3nc(NC(=O)c4ccc(F)cc4)n([C@H]4CC[C@@H](C(=O)NC(C)C)CC4)c3c2)cc1 [Example 153, 4-Fluoro-N-(6-((4-methoxybenzyl)oxy)-1-(cis-4-((1-methylethyl)carbamoyl)cyclohexyl)-1H-benzimidazol-2-yl)benzamide]",< 50 nM
7,"CC(C)NC(=O)[C@H]1CC[C@@H](n2/c(=N/C(=O)c3ccc(F)cc3)[nH]c3ccc(O)cc32)CC1 [Example 154, 4-Fluoro-N-(6-hydroxy-1-(cis-4-(isopropylcarbamoyl)cyclohexyl)-1H-benzo[d]imidazol-2-yl)benzamide]",< 50 nM
8,"CC(C)NC(=O)[C@H]1CC[C@@H](n2/c(=N/C(=O)c3ccc(F)cc3)[nH]c3ccc(OCCN4CCCCC4)cc32)CC1 [Example 155, (E)-4-Fluoro-N-(1-(cis-4-(isopropylcarbamoyl)cyclohexyl)-6-(2-(piperidin-1-yl)ethoxy)-1H-benzo[d]imidazol-2(3H)-ylidene)benzamide]",< 50 nM
9,"CC(C)NC(=O)[C@H]1CC[C@@H](n2/c(=N/C(=O)c3ccc(F)cc3)[nH]c3cnccc32)CC1 [Example 156, (E)-4-Fluoro-N-(1-(cis-4-(isopropylcarbamoyl)cyclohexyl)-1H-imidazo[4,5-c]pyridin-2(3H)-ylidene)benzamide]",< 50 nM
10,"COc1cc2c(cn1)[nH]/c(=N\C(=O)c1ccc(F)cc1)n2[C@H]1CC[C@@H](C(=O)NC(C)C)CC1 [Example 157, (E)-4-Fluoro-N-(1-(cis-4-(isopropylcarbamoyl)cyclohexyl)-6-methoxy-1H-imidazo[4,5-c]pyridin-2(3H)-ylidene)benzamide]",< 50 nM
11,"COCCOc1cc2c(cn1)[nH]/c(=N\C(=O)c1ccc(F)cc1)n2[C@H]1CC[C@@H](C(=O)NC(C)C)CC1 [Example 159, (E)-4-Fluoro-N-(1-(cis-4-(isopropylcarbamoyl)cyclohexyl)-6-(2-methoxyethoxy)-1H-imidazo[4,5-c]pyridin-2(3H)-ylidene)benzamide]",< 50 nM
12,"CC(C)NC(=O)[C@H]1CC[C@@H](n2/c(=N/C(=O)c3ccc(F)cc3)[nH]c3cnc(Cl)cc32)CC1 [Example 160, (E)-N-(6-Chloro-1-(cis-4-(isopropylcarbamoyl)cyclohexyl)-1H-imidazo[4,5-c]pyridin-2(3H)-ylidene)-4-fluorobenzamide]",< 50 nM
13,"CC(C)NC(=O)[C@H]1CC[C@@H](n2/c(=N/C(=O)c3ccc(F)cc3)[nH]c3ccc(OCCN4CCOCC4)cc32)CC1 [Example 161, (E)-4-Fluoro-N-(1-(cis-4-(isopropylcarbamoyl)cyclohexyl)-6-(2-morpholinoethoxy)-1H-benzo[d]imidazol-2(3H)-ylidene)benzamide]",< 50 nM
14,"CC(C)NC(=O)[C@H]1CC[C@@H](n2/c(=N/C(=O)c3ccc(F)cc3)[nH]c3cnc(O)cc32)CC1 [Example 162, (E)-4-Fluoro-N-(6-hydroxy-1-(cis-4-(isopropylcarbamoyl)cyclohexyl)-1H-imidazo[4,5-c]pyridin-2(3H)-ylidene)benzamide]",< 50 nM

# Now from value to compound:
row,IC50,SMILES
1,< 50 nM,"CC(C)NC(=O)[C@H]1CC[C@@H](n2/c(=N/C(=O)c3ccc(F)cc3)[nH]c3cnc(NCCN4CCOCC4)cc32)CC1 [Example 163, (E)-4-Fluoro-N-(1-(cis-4-(isopropylcarbamoyl)cyclohexyl)-6-(2-morpholinoethylamino)-1H-imidazo[4,5-c]pyridin-2(3H)-ylidene)benzamide]"
2,< 50 nM,"CC(C)NC(=O)[C@H]1CC[C@@H](n2/c(=N/C(=O)c3ccc(F)cc3)[nH]c3cnc(OCCn4cncn4)cc32)CC1 [Example 164, (E)-N-(6-(2-(1H-1,2,4-Triazol-1-yl)ethoxy)-1-(cis-4-(isopropylcarbamoyl)cyclohexyl)-1H-imidazo[4,5-c]pyridin-2(3H)-ylidene)-4-fluorobenzamide]"
3,< 50 nM,"CC(C)NC(=O)[C@H]1CC[C@@H](n2/c(=N/C(=O)c3ccc(F)cc3)[nH]c3cnc(OCCCN4CCOCC4)cc32)CC1 [Example 165, (E)-4-Fluoro-N-(1-(cis-4-(isopropylcarbamoyl)cyclohexyl)-6-(3-morpholinopropoxy)-1H-imidazo[4,5-c]pyridin-2(3H)-ylidene)benzamide]"
4,< 50 nM,"CC(C)NC(=O)[C@H]1CC[C@@H](n2/c(=N/C(=O)c3ccc(F)cc3)[nH]c3cc(F)c(OCCN4CCOCC4)cc32)CC1 [Example 166, (E)-4-Fluoro-N-(5-fluoro-1-(cis-4-(isopropylcarbamoyl)cyclohexyl)-6-(2-morpholinoethoxy)-1H-benzo[d]imidazol-2(3H)-ylidene)benzamide]"
5,< 50 nM,"CC(C)NC(=O)[C@H]1CC[C@@H](n2/c(=N/C(=O)c3ccc(F)cc3)[nH]c3cnc(OC4CCN(CC(=O)OC(C)(C)C)CC4)cc32)CC1 [Example 167, tert-Butyl 2-(4-((E)-2-(4-fluorobenzoylimino)-1-(cis-4-(isopropylcarbamoyl)cyclohexyl)-2,3-dihydro-1H-imidazo[4,5-c]pyridin-6-yloxy)piperidin-1-yl)acetate]"
6,< 50 nM,"CC(C)NC(=O)[C@H]1CC[C@@H](n2/c(=N/C(=O)c3ccc(F)cc3)[nH]c3cnc(OC4CCN(CC(=O)O)CC4)cc32)CC1 [Example 168, 2-(4-((E)-2-(4-Fluorobenzoylimino)-1-(cis-4-(isopropylcarbamoyl)cyclohexyl)-2,3-dihydro-1H-imidazo[4,5-c]pyridin-6-yloxy)piperidin-1-yl)acetic acid hydrochloride]"
7,< 50 nM,"CC(C)NC(=O)[C@H]1CC[C@@H](n2/c(=N/C(=O)c3ccc(F)cc3)[nH]c3cnc(OC4CCN(C)CC4)cc32)CC1 [Example 169, (E)-4-Fluoro-N-(1-(cis-4-(isopropylcarbamoyl)cyclohexyl)-6-(1-methylpiperidin-4-yloxy)-1H-imidazo[4,5-c]pyridin-2(3H)-ylidene)benzamide]"
8,< 50 nM,"CC(C)NC(=O)[C@H]1CC[C@@H](n2/c(=N/C(=O)c3ccc(F)cc3)[nH]c3ccc(CO)cc32)CC1 [Example 170, (E)-4-Fluoro-N-(6-(hydroxymethyl)-1-(cis-4-(isopropylcarbamoyl)cyclohexyl)-1H-benzo[d]imidazol-2(3H)-ylidene)benzamide]"
9,< 50 nM,"CC(C)NC(=O)[C@H]1CC[C@@H](n2/c(=N/C(=O)c3ccc(F)cc3)[nH]c3ccc(CN4CCN(S(C)(=O)=O)CC4)cc32)CC1 [Example 172, (E)-4-Fluoro-N-(1-(cis-4-(isopropylcarbamoyl)cyclohexyl)-6-((4-(methylsulfonyl)piperazin-1-yl)methyl)-1H-benzo[d]imidazol-2(3H)-ylidene)benzamide]"
10,< 50 nM,"CC(C)NC(=O)[C@H]1CC[C@@H](n2/c(=N/C(=O)c3ccc(F)cc3)[nH]c3ccc(CN4CCN(CCO)CC4)cc32)CC1 [Example 173, (E)-4-Fluoro-N-(6-((4-(2-hydroxyethyl)piperazin-1-yl)methyl)-1-(cis-4-(isopropylcarbamoyl)cyclohexyl)-1H-benzo[d]imidazol-2(3H)-ylidene)benzamide]"
11,< 50 nM,"CC(C)NC(=O)[C@H]1CC[C@@H](n2/c(=N/C(=O)c3ccc(F)cc3)[nH]c3ccc(CN4CCCC(C(N)=O)C4)cc32)CC1 (stereo partly drawn) [Example 180, 1-(((E)-2-(4-Fluorobenzoylimino)-3-(cis-4-(isopropylcarbamoyl)-cyclohexyl)-2,3-dihydro-1H-benzo[d]imidazol-5-yl)methyl)piperidine-3-carboxamide]"
12,< 50 nM,"CC(C)NC(=O)[C@H]1CC[C@@H](n2/c(=N/C(=O)c3ccc(F)cc3)[nH]c3ccc(CN4CCC(S(=O)(=O)O)CC4)cc32)CC1 [Example 181, 1-(((E)-2-(4-Fluorobenzoylimino)-3-(cis-4-(isopropylcarbamoyl)-cyclohexyl)-2,3-dihydro-1H-benzo[d]imidazol-5-yl)methyl)piperidine-4-sulfonic acid]"

# Source: patent US9115127B2 (AMGEN INC., priority 2010, dated 2015)
